Experimental data from US20230270677A1, “LONG-ACTING THERAPEUTIC AGENT COMBINATIONS AND METHODS THEREOF” (University of Washington, priority 2020, published 2023).
Read-outs that look alike come from different tables or passages of the source.

Assays:
[1] = cited from earlier work
[2] = system: HIV-1; conditions: read-out: therapeutically effective plasma concentration (EC50); cited from earlier work
[3] = Plasma pharmacokinetics after single subcutaneous dose in non-human primates (DcNP or free drug combination); conditions: for half-life: monkey, sc
Method: To evaluate whether presenting the three drugs—e.g., DTG-3TC-TFV, LPV-RTV-TFV, EFV-LPV-TFV, ATZ-RTV-TFV or 4 drugs—e.g., LPV-RTV-3TC-TFV in a combination nanosuspension using DcNP platform could provide long-acting plasma and intracellular drug exposure, macaques were subcutaneously administered with either DcNP formulated or soluble free drug combination. The free-drug combination (control) arm consisted of two groups. In the control group, 2-4 macaques were administered at an indicated single subcutaneous dose where equivalent dug combinations are dissolved in DMSO and diluted with water.
Whole blood in EDTA tubes was immediately centrifuged and plasma was removed and frozen at −80° C. until LC-MS/MS analysis.
Plasma drug concentrations were reported in units of nM. Non-compartmental parameters were estimated from plasma profiles for free and DcNP formulations using Phoenix WinNonlin (Certara, Princeton, N.J.). The following non-compartmental parameters were estimated: area under the plasma concentration-time curve (AUC) extrapolated to infinity; terminal half-life (t1/2); apparent clearance (CL/F); and mean body residence time (MBRT) based on moments extrapolated to infinity.

[4] = cited from earlier work; remark: listed apart in the source
[5] = cited from earlier work; remark: listed apart in the source

In the case of `Cc1cc(/C=C/C#N)cc(C)c1Nc1ccnc(Nc2ccc(C#N)cc2)n1` [Rilpivirine, 4-[[4-[4-[(E)-2-cyanoethenyl]-2,6-dimethylanilino]pyrimidin-2-yl]amino]benzonitrile], the “log P” value [1] is listed as 4.5 and the EC50 [2] is listed as 0.7 to 1.1 nM.

For “[(2˜{R})-1-(6-aminopurin-9-yl)propan-2-yl]oxymethylphosphonic acid [Tenofovir]”, the “DcNP formulation (non-human primates) (plasma half-life, hours)” value ([3]; DcNP formulation, non-human primates) is listed as greater than 200 to 350 h and the “Oral single dose formulation (plasma half-life, hours)” value (from here on “Oral single dose formulation”) ([4]; oral) is listed as 8 to 17 h.

For `O=C1Nc2ccc(Cl)cc2[C@@](C#CC2CC2)(C(F)(F)F)O1` [Efavirenz], the “log P” value [1] is given as 4 and the Water solubility [5] is given as 0.00855 µg/mL.

In the case of `CC(C)c1nc(CN(C)C(=O)N[C@H](C(=O)N[C@@H](Cc2ccccc2)C[C@H](O)[C@H](Cc2ccccc2)NC(=O)OCc2cncs2)C(C)C)cs1` [Ritonavir, 1,3-thiazol-5-ylmethyl N-[(2S,3S,5S)-3-hydroxy-5-[[(2S)-3-methyl-2-[[methyl-[(2-propan-2-yl-1,3-thiazol-4-yl)methyl]carbamoyl]amino]butanoyl]amino]-1,6-diphenylhexan-2-yl]carbamate], the EC50 [2] is given as 3.8 to 153 nM, the half-life ([3]; plasma) is given as 250 to 350 h and the “Oral single dose formulation” value ([4]; oral) is given as 2.5 h.

In the case of `C[C@H](Cn1cnc2c(N)ncnc21)OCP(=O)(O)O` [Tenofovir, [(2˜{R})-1-(6-aminopurin-9-yl)propan-2-yl]oxymethylphosphonic acid], the “log P” value [1] is given as −1.6, the EC50 [2] is given as 40 to 8500 nM and the Water solubility [5] is given as 13000 µg/mL.

In the case of `Cc1cccc(C)c1OCC(=O)N[C@@H](Cc1ccccc1)[C@@H](O)C[C@H](Cc1ccccc1)NC(=O)[C@H](C(C)C)N1CCCNC1=O` [Lopinavir, (2S)—N-[(2S,4S,5S)-5-[[2-(2,6-dimethylphenoxy)acetyl]amino]-4-hydroxy-1,6-diphenylhexan-2-yl]-3-methyl-2-(2-oxo-1,3-diazinan-1-yl)butanamide], the EC50 [2] is listed as 10 to 27 nM, the half-life ([3]; in vivo) is listed as 250 to 350 h and the “Oral single dose formulation” value ([4]; in vivo, po) is listed as 2.5 h.

For `C[C@@H]1CCO[C@H]2Cn3cc(C(=O)NCc4ccc(F)cc4F)c(=O)c(O)c3C(=O)N12` [Dolutegravir], the “log P” value ([1]; listed as DTG) is listed as greater than 2, the EC50 [2] is listed as 0.02 to 2.14 nM and the half-life ([3]; plasma) is listed as greater than 400 h. For the same compound, the “Oral single dose formulation” value ([4]; oral) was 23 h and the Water solubility [5] was less than 95 µg/mL.
